Eleven compounds from US6610712B2, “Aryloxy piperidinyl derivatives for the treatment of depression” (Wyeth, priority 2000, dated 2003) can be followed below.

One may read the Ki as a measure of affinity in units of concentration, obtained from inhibition or displacement. The term melting point denotes the temperature of the solid-liquid transition.

Structures can show the parent of a compound that is named as a salt.

One data set has as its target Serotonin Transporter (Homo sapiens, UniProt P31645). In words: Serotonin transporter binding, [3H]paroxetine. The following applies: radioligand [3H]paroxetine.
In the next data set the target is T1, 5-HT1A (Homo sapiens, UniProt P08908).
T1 sequence (P08908 1-422): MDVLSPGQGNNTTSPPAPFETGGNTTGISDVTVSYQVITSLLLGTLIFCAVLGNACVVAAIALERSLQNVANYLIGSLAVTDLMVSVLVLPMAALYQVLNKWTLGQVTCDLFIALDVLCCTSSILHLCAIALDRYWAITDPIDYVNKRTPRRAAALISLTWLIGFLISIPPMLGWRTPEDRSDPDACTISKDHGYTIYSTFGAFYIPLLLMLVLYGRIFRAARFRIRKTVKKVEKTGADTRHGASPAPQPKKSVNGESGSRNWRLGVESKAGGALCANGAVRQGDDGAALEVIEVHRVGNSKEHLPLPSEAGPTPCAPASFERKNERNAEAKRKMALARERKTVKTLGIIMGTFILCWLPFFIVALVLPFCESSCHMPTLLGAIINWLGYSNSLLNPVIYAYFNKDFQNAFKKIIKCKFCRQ
Kind of data set: 5-HT1A receptor binding, [3H]DPAT. On the set-up: 5-HT1A [3H]DPAT, % at single concentration: dose or concentration left out as unconfirmed. The conditions noted are these: radioligand [3H]DPAT.

Serotonin Transporter, sequence (P31645 whole entry): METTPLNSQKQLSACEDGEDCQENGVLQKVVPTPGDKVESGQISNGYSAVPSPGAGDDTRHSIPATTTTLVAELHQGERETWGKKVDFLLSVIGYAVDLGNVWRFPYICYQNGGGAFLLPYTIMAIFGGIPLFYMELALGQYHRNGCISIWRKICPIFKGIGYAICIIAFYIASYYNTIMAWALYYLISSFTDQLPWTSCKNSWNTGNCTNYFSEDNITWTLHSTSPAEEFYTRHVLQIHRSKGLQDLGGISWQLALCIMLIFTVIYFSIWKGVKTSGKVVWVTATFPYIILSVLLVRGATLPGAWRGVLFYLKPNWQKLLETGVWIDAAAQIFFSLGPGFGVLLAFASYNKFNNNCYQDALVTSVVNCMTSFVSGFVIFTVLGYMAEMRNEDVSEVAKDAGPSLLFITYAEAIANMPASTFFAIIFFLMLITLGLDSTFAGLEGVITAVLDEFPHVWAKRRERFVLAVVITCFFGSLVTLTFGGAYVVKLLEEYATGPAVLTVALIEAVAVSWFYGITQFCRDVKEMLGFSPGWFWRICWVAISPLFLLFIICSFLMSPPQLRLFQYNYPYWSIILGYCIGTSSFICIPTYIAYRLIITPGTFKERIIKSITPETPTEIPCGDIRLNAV

Consider “6-Fluoro-3-{1-[2-(2,3-dihydro-benzo[1,4]dioxan-5-yloxy)-ethyl]-1,2,3,6-tetrahydro-pyridin-4-yl}-1H-indole [Example 6]”, for which the figures for the Ki on Serotonin Transporter and on 5-HT1A were 0.15 nM and 83.7 nM, respectively.

The compound `Fc1ccc2[nH]cc(CC3CCN(CCOc4cccc5c4OCCO5)CC3)c2c1` (as salt: fumarate) (hydrate or solvate) [Example 2, 5-Fluoro-3-{1-[2-(2,3-dihydrobenzo[1,4]dioxin-5-yloxy)ethyl]-piperidin-4-ylmethyl}-1H-indole] showed a melting point of 157 to 159 °C.

`Fc1ccc2[nH]cc(CC3CCN(CCOc4ccc5c(c4)CCC5)CC3)c2c1` (as salt: hydrochloride) (hydrate or solvate) [Example 3, 5-Fluoro-3-{1-[2-(indan-5-yloxy)-ethyl]-piperidin-4-ylmethyl}-1H-indole] yielded a melting point of 150 to 152 °C.

With `COc1ccccc1OCCN1CCC(Cc2c[nH]c3ccc(F)cc23)CC1` (as salt: oxalate) (hydrate or solvate) [Example 1, 5-Fluoro-3-{1-[2-(2-methoxyphenoxy)ethyl]-piperidin-4-ylmethyl}-1H-indole], the melting point was 91 °C.

In the case of `C1=C(c2c[nH]c3ccccc23)CCN(CCOc2cccc3c2OCCO3)C1` (as salt: oxalate) [Example 4, 3-{1-[2-(2,3-Dihydro-benzo[1,4]dioxan-5-yloxy)-ethyl]-1,2,3,6-tetrahydro-pyridin-4-yl}-1H-indole], the melting point is 85 to 88 °C.

In the case of `Fc1ccc2[nH]cc(C3=CCN(CCOc4cccc5c4OCCO5)CC3)c2c1` (as salt: oxalate) [Example 5, 5-Fluoro-3-{1-[2-(2,3-dihydro-benzo[1,4]dioxan-5-yloxy)-ethyl]-1,2,3,6-tetrahydro-pyridin-4-yl}-1H-indole], the melting point fell in the range of 195 to 198 °C.

As to `COc1ccccc1OCCN1CCC(Cc2c[nH]c3ccc(F)cc23)CC1` [Example 1, 5-Fluoro-3-{1-[2-(2-methoxyphenoxy)ethyl]-piperidin-4-ylmethyl}-1H-indole], the Ki came out at 0.35 nM on Serotonin Transporter and 180 nM at 5-HT1A.

For the compound `Fc1ccc2[nH]cc(CC3CCN(CCOc4cccc5c4OCCO5)CC3)c2c1` [Example 2, 5-Fluoro-3-{1-[2-(2,3-dihydrobenzo[1,4]dioxin-5-yloxy)ethyl]-piperidin-4-ylmethyl}-1H-indole], the Ki on Serotonin Transporter was determined as 0.011 nM; on 5-HT1A, 168 nM.

In turn, `Fc1ccc2[nH]cc(CC3CCN(CCOc4ccc5c(c4)CCC5)CC3)c2c1` [Example 3, 5-Fluoro-3-{1-[2-(indan-5-yloxy)-ethyl]-piperidin-4-ylmethyl}-1H-indole] displayed a Ki on Serotonin Transporter of 2.24 nM. Also, the “5-HT1A [3H]DPAT, % at single concentration” value at 5-HT1A came to 0% @ 0.1 M.

Regarding `C1=C(c2c[nH]c3ccccc23)CCN(CCOc2cccc3c2OCCO3)C1` [Example 4, 3-{1-[2-(2,3-Dihydro-benzo[1,4]dioxan-5-yloxy)-ethyl]-1,2,3,6-tetrahydro-pyridin-4-yl}-1H-indole], the Ki came out at 0.17 nM on Serotonin Transporter and 78.3 nM on 5-HT1A.

`Fc1ccc2[nH]cc(C3=CCN(CCOc4cccc5c4OCCO5)CC3)c2c1` [Example 5, 5-Fluoro-3-{1-[2-(2,3-dihydro-benzo[1,4]dioxan-5-yloxy)-ethyl]-1,2,3,6-tetrahydro-pyridin-4-yl}-1H-indole]: the Ki is 1.17 nM at Serotonin Transporter and 83.3 nM on 5-HT1A.
